Laboratory results taken from paper PMC9544403, “Schwarzinicine A inhibits transient receptor potential canonical channels and exhibits overt vasorelaxation effects” (Phytotherapy Research, 2022).

How the values were obtained:
Format in all cases: cell-based
hTRPC6 = biological target: T1, hTRPC6 (Homo sapiens, UniProt Q9Y210); assay: fura-2 intracellular calcium assay, OAG-activated hTRPC6 transfected in HEK […] cells
T1 construct: gene TRPC6
T1 sequence (Q9Y210 1-931): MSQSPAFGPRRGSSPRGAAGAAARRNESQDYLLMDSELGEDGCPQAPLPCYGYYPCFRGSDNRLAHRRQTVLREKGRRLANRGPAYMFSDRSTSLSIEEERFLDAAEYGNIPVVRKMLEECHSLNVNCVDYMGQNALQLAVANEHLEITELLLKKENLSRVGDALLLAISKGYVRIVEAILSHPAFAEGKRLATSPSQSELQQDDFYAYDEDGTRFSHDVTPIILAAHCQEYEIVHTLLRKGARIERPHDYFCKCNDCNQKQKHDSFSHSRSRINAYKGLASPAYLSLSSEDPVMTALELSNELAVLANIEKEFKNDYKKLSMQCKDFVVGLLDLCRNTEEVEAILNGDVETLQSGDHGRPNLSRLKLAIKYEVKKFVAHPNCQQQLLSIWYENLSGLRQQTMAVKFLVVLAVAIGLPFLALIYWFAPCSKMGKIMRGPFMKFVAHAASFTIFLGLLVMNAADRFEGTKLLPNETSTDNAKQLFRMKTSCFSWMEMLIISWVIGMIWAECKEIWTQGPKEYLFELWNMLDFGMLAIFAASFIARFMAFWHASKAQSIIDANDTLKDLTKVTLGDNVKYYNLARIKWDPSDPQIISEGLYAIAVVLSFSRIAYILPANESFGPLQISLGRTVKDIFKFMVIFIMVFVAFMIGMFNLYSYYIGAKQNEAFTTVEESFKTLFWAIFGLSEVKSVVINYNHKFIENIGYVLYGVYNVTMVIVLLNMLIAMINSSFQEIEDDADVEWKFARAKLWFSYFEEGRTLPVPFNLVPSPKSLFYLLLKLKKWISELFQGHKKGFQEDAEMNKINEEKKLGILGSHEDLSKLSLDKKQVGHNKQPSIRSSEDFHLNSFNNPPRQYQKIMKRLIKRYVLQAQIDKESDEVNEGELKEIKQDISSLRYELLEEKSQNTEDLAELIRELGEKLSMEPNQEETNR

hTRPC3 = biological target: T2, hTRPC3 (Homo sapiens, UniProt Q13507); assay: fura-2 intracellular calcium assay, OAG-activated hTRPC3 overexpressed in HEK T-REx cells
T2 construct: gene TRPC3
T2 sequence (Q13507 1-921): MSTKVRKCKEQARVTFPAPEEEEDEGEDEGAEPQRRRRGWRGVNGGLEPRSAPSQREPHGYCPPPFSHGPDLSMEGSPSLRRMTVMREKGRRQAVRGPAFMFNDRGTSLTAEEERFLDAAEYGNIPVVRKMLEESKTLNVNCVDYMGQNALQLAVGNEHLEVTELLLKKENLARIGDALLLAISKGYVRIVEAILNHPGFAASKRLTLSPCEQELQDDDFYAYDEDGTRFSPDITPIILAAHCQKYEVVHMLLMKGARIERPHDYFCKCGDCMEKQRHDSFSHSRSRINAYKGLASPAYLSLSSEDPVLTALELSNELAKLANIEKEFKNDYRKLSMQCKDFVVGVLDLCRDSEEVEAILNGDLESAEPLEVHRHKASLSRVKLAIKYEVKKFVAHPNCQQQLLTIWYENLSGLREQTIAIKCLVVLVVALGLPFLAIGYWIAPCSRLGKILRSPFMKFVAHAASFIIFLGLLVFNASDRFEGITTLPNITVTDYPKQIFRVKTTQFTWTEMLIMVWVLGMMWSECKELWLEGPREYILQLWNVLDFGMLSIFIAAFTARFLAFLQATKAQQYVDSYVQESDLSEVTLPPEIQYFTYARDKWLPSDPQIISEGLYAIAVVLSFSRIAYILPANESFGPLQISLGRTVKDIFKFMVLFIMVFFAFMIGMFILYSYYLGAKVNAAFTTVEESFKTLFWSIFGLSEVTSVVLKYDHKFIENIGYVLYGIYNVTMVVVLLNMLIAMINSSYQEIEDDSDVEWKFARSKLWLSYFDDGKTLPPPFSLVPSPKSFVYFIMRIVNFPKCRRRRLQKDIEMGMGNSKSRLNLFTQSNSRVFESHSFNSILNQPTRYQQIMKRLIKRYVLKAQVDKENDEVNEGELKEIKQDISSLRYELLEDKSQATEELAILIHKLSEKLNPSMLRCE

hTRPC4 = biological target: T3, hTRPC4 (Homo sapiens, UniProt Q9UBN4); assay: fura-2 intracellular calcium assay, S1P-activated hTRPC4 overexpressed in HEK T-REx cells
T3 construct: gene TRPC4
T3 sequence (Q9UBN4 1-977): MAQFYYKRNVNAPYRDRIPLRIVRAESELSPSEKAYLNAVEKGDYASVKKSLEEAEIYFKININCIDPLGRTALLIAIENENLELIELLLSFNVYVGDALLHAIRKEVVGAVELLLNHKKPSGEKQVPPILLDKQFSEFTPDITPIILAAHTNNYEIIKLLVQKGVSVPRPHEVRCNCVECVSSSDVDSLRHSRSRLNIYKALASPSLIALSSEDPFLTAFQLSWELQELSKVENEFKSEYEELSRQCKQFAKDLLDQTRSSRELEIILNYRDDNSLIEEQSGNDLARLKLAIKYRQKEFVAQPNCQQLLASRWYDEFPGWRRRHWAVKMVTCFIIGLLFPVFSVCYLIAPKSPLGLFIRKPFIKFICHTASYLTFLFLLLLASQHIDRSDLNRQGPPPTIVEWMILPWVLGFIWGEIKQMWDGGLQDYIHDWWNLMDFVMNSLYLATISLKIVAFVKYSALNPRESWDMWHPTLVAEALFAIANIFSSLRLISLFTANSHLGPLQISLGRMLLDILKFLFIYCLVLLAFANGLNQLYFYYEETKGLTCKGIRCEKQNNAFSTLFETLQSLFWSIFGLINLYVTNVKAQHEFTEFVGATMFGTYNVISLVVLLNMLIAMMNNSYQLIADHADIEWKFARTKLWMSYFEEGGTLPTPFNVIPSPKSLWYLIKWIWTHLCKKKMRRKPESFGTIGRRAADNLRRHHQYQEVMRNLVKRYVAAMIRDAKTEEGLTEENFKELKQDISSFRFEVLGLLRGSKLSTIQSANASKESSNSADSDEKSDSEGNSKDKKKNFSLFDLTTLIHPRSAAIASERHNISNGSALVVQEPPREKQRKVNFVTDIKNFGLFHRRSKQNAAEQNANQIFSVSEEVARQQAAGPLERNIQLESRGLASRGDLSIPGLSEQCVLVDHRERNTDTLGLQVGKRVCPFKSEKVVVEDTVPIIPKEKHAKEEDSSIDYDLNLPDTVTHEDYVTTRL

hTRPC5 = biological target: T4, hTRPC5 (Homo sapiens, UniProt Q9UL62); assay: fura-2 intracellular calcium assay, S1P-activated hTRPC5 overexpressed in HEK T-REx cells
T4 construct: gene TRPC5
T4 sequence (Q9UL62 1-973): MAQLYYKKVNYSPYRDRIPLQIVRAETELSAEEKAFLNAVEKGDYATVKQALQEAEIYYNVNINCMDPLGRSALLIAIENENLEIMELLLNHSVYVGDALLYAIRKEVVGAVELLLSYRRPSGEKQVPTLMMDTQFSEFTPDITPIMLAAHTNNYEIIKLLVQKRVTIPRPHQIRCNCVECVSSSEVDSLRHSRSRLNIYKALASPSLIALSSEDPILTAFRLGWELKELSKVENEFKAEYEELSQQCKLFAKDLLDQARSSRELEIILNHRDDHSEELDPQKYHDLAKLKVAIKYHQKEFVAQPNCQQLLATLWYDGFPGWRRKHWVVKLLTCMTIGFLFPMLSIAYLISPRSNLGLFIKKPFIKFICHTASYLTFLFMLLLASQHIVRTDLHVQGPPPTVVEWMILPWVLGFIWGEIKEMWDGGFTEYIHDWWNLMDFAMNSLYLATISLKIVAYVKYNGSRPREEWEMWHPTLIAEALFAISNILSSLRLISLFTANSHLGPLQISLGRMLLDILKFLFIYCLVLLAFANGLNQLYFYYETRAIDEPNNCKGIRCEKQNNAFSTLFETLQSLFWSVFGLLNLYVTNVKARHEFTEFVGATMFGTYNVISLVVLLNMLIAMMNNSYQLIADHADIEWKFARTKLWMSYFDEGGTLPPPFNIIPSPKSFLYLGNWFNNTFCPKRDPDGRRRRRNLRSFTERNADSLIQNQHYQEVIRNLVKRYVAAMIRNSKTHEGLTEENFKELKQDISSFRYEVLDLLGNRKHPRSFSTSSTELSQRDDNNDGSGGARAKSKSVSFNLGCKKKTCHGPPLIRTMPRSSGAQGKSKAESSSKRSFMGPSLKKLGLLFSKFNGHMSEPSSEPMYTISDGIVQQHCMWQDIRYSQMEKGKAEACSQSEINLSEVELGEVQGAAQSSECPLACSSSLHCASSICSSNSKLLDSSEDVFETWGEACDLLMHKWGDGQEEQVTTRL
Excerpt: fura-2 intracellular calcium assay, S1P-activated hTRPC5 overexpressed in HEK T-REx cells on hTRPC5 | S1P‐evoked calcium influx mediated by hTRPC4 and hTRPC5 were inhibited by schwarzinicine A

COc1ccc(CCNC(CCc2ccc(OC)c(OC)c2)Cc2ccc(OC)c(OC)c2)cc1OC (racemic) [schwarzinicine A, N‐(3,4‐dimethoxyphenethyl)‐1,4‐bis(3,4‐dimethoxyphenyl)butan‐2‐amine]
IC50 (hTRPC6): 7 µM
IC50 (hTRPC3): 3 µM
IC50 (hTRPC4): 17 µM
IC50 (hTRPC5): 19 µM
